In ChEMBL document CHEMBL1201862, “PubChem BioAssay data set” (2004):
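Step 1: Grow cells in 96-well plates. Step 2: Expose to compound for 48 hours at 5 concentrations. Step 3: Interpolate endpoints linearly; if unreached, use highest concentration. Here, GI50 denotes the concentration required for 50% inhibition of growth.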 Activity calls are given as the source filed them. No stated cut-off is given here; in the data, active = GI50 up to about 1.1 µM and inactive = higher.

Columns and labels:
Test in all cases: NCI anticancer screen, dose series, 48 h
[1] = tested on: 786-0
[2] = tested on: A498
[3] = tested on: BT-549
[4] = tested on: COLO 205
[5] = tested on: HCT-116
[6] = tested on: HOP-92
[7] = tested on: Hs-578T
[8] = tested on: IGROV-1
[9] = tested on: M14
[10] = tested on: MDA-MB-435
[11] = tested on: MDA-N
[12] = tested on: Malme-3M
[13] = tested on: NCI-H226
[14] = tested on: NCI-H522
[15] = tested on: NCI/ADR-RES
[16] = tested on: PC-3
[17] = tested on: SK-MEL-5
[18] = tested on: SN12C
[19] = tested on: SNB-75
[20] = tested on: TK-10

Measured: GI50

CCC(=O)Nc1ccc(NCC(=O)Nc2ccc(Cl)cc2)cc1
inactive: [1] 17.2 µM | [2] 17.7 µM | [3] 21.9 µM | [4] 16.9 µM | [5] 14.4 µM | [6] 17.6 µM | [7] 37 µM | [8] 18.4 µM | [9] 15.3 µM | [10] 15.7 µM | [11] 17.2 µM | [12] 19.7 µM | [13] 18.2 µM | [14] 15 µM | [15] 33.2 µM | [16] 15.1 µM | [17] 15.8 µM | [18] 17.1 µM | [19] 25.5 µM

O=c1[nH]c(=O)n(C2OC(CO)C(O)C2O)c2ncc(-c3ccc(-c4ccccc4)cc3)nc12 (stereo not drawn)
inactive: [1] > 20 µM | [2] > 20 µM | [3] > 20 µM | [4] > 20 µM | [5] > 20 µM | [6] > 20 µM | [7] > 20 µM | [8] > 20 µM | [10] > 20 µM | [11] > 20 µM | [12] > 20 µM | [13] > 20 µM | [14] > 20 µM | [15] > 20 µM | [16] > 20 µM | [17] > 20 µM | [18] > 20 µM | [19] > 20 µM | [20] > 20 µM

N=C(N)C(/N=N\c1ccccc1)C(=N)N (stereo not drawn)
inactive: [1] 35.6 µM | [2] 54.5 µM | [3] 39.9 µM | [4] 29.8 µM | [5] 33.5 µM | [6] 20.3 µM | [7] 48.9 µM | [8] 33.2 µM | [9] 40.7 µM | [10] 16.9 µM | [11] 19.5 µM | [12] 51.1 µM | [13] 15 µM | [14] 36 µM | [15] 60.4 µM | [16] 31.8 µM | [17] 28 µM | [18] 36.6 µM | [20] 46.9 µM

CC(C)(C)c1ccc(-n2c3nc(=O)n(-c4ccccc4C(F)(F)F)c(=O)c-3cc3ccccc32)cc1
inactive: [1] 25.7 µM | [2] 31.3 µM | [3] 24 µM | [4] 19.1 µM | [5] 10.5 µM | [6] 18.1 µM | [7] 21.9 µM | [8] 29.1 µM | [9] 14.4 µM | [10] 15.6 µM | [11] 22.2 µM | [13] 17 µM | [14] 16.9 µM | [15] 23.4 µM | [16] 17 µM | [17] 15 µM | [18] 20.2 µM | [19] 15.6 µM | [20] 51.9 µM

Nc1cccnc1NCC1(CO)CCCC1
inactive: [1] > 100 µM | [2] > 100 µM | [3] > 100 µM | [4] > 100 µM | [5] > 100 µM | [7] > 100 µM | [8] > 100 µM | [10] > 100 µM | [11] > 100 µM | [12] > 100 µM | [13] > 100 µM | [14] > 100 µM | [15] > 100 µM | [16] > 100 µM | [17] > 100 µM | [18] > 100 µM | [19] > 100 µM | [20] > 100 µM

C=C(CN)CO[Si](C)(C)C(C)(C)C
inactive: [1] > 100 µM | [2] > 100 µM | [3] > 100 µM | [4] > 100 µM | [5] > 100 µM | [7] > 100 µM | [8] > 100 µM | [9] > 100 µM | [10] > 100 µM | [11] > 100 µM | [12] > 100 µM | [13] > 100 µM | [14] > 100 µM | [15] > 100 µM | [16] > 100 µM | [17] > 100 µM | [18] > 100 µM | [19] 72.1 µM | [20] 77.1 µM

COc1cc2c(cc1OC)C(=O)N(c1ccc(OCCN3CCCC3)cc1)C2
inactive: [1] > 100 µM | [2] > 100 µM | [3] > 100 µM | [4] > 100 µM | [5] > 100 µM | [6] > 100 µM | [7] > 100 µM | [8] > 100 µM | [9] > 100 µM | [10] > 100 µM | [11] > 100 µM | [12] > 100 µM | [13] > 100 µM | [14] > 100 µM | [15] > 100 µM | [16] > 100 µM | [17] > 100 µM | [18] > 100 µM | [20] > 100 µM

Cc1cc(OC(=O)Nc2ccc(Cl)cc2)ccc1C(=S)Nc1ccccc1
inactive: [1] 80 µM | [2] 96.6 µM | [3] 91.8 µM | [4] 40.6 µM | [5] 28.6 µM | [6] > 100 µM | [7] 91 µM | [8] > 100 µM | [9] 12.6 µM | [10] 54 µM | [11] 71.3 µM | [12] 53 µM | [14] 21.6 µM | [15] 48.1 µM | [16] > 100 µM | [17] 28 µM | [18] > 100 µM | [19] 49.9 µM

O=C(OCC(OC(=O)c1ccccc1)C1CC(C(O)C2CCCCC2)C(=O)O1)c1ccccc1 (stereo not drawn)
inactive: [1] > 100 µM | [2] > 100 µM | [3] 53 µM | [4] 45.9 µM | [5] 31.6 µM | [6] > 100 µM | [7] > 100 µM | [8] 32.2 µM | [9] 63.7 µM | [10] > 100 µM | [11] > 100 µM | [13] 87.7 µM | [14] 22.2 µM | [15] 23.2 µM | [16] 45.7 µM | [17] 17.3 µM | [18] 47.6 µM | [19] 51.4 µM | [20] > 100 µM

O=C1Nc2cccc(Cl)c2/C1=C\c1c(Cl)nc2n1CCS2
inactive: [1] > 100 µM | [2] > 100 µM | [3] > 100 µM | [4] > 100 µM | [5] > 100 µM | [6] 56.9 µM | [7] > 100 µM | [8] > 100 µM | [9] > 100 µM | [10] 35.1 µM | [11] 45.6 µM | [12] > 100 µM | [14] > 100 µM | [15] > 100 µM | [16] > 100 µM | [17] > 100 µM | [18] > 100 µM | [19] > 100 µM | [20] 60.7 µM

CC(=O)Nc1ccc(C2SCc3nc4ccccc4n32)cc1 (stereo not drawn)
inactive: [1] 56.8 µM | [2] 4.91 µM | [3] > 35.7 µM | [4] > 100 µM | [5] > 100 µM | [6] 57.7 µM | [7] 41.9 µM | [8] > 91 µM | [9] > 100 µM | [10] > 100 µM | [11] > 100 µM | [12] 34.7 µM | [14] 66.5 µM | [15] 33.5 µM | [16] 87.7 µM | [17] 60.1 µM | [18] > 100 µM | [19] 34.4 µM | [20] 22.6 µM

CCCSc1ccc2[nH]c(/N=C/c3ccccc3)cc2c1
inactive: [1] 19.1 µM | [2] 28.8 µM | [3] 33.7 µM | [4] 19.3 µM | [5] 17.7 µM | [6] 25.5 µM | [7] 27.9 µM | [8] 31.8 µM | [9] 25.5 µM | [10] 5.75 µM | [11] 7.67 µM | [12] 16.6 µM | [14] 15.6 µM | [15] 21.9 µM | [16] 34.1 µM | [17] 7.14 µM | [18] 27.3 µM | [19] 20.5 µM

CC[C@H]1C=CCC[C@@]2(C[C@@H]3CC[C@H]4[C@@H](C(=O)OCCCCCCCCCCCCCCCC(=O)N(CCCN)C[C@@H](O)CCN)[C@@]5(CCC[C@@H](C)O5)NC(=[N+]34)N2)O1
inactive: [1] 1.88 µM | [2] 3.01 µM | [3] 2.01 µM | [4] 1.83 µM | [5] 1.61 µM | [6] 1.87 µM | [7] 1.83 µM | [8] 1.74 µM | [9] 1.91 µM | [10] 1.55 µM | [11] 1.66 µM | [12] 1.67 µM | [13] 1.6 µM | [14] 1.66 µM | [15] > 10 µM | [16] 1.62 µM | [17] 1.47 µM | [18] 2.96 µM | [20] 1.58 µM

CC1OC(OC2C(O)COC(OC3C(C)OC(OC4C(OC(=O)[C@]56CCC(C)(C)C[C@@H]5C5=CCC7[C@@]8(C)C[C@H](O)[C@H](OC9OC(CO)C(O)C(OC%10OC(CO)C(O)C(O)C%10O)C9O)[C@@](C)(CO)[C@@H]8CC[C@@]7(C)[C@]5(C)CC6)OCC(O)C4O)C(O)C3OC3OCC(O)(CO)C3O)C2O)C(O)C(O)C1O (stereo partly drawn)
inactive: [1] 8.09 µM | [2] 9.62 µM | [3] 5.19 µM | [4] 6.31 µM | [5] 11.2 µM | [6] 10.2 µM | [7] 11.3 µM | [9] 6.15 µM | [10] 11.5 µM | [11] 10.2 µM | [12] 5 µM | [13] 12.3 µM | [14] 7.96 µM | [15] 7.35 µM | [16] 6 µM | [17] 8.05 µM | [18] 3.66 µM | [19] 11.2 µM | [20] 9.79 µM
